{
  "source": "patent US20110171135A1",
  "about": "“PEST-CONTROL COMPOSITIONS AND METHODS HAVING HIGH TARGET AND LOW NON-TARGET ACTIVITY” (priority 2008, published 2011)",
  "key": {"[1]": {"tested_on": "wild-type strain of E. coli", "experiment": "MIC over successive weeks (resistance development) in E. coli", "format": "cell-based", "conditions": "MIC determined weekly and applied, repeated for 4 weeks", "protocol": "Test compositions and conventional pesticides are compared to determine their respective ability to maintain pesticidal effectiveness over successive generations of pest species. For example, a wild-type strain of E. coli is treated with both penicillin (group 1) and a test composition from Table 1 or Table 2 (group 2). MIC (minimum inhibitory concentration; the lowest concentration of an antibacterial that will inhibit the visible growth of a microorganism after overnight incubation) values are determined at 1-week post-treatment for both groups, and the appropriate MIC amount is applied to both test populations. This is repeated for 4 weeks. […] In contrast, the MIC value for group 2 remains static, indicating a lack of resistance development among the group 2 population."}, "[2]": {"tested_on": "tyramine receptor mutant (TyrRneo30) strains", "format": "in vivo, Drosophila", "conditions": "topically applied at LD50 determined against wild type; mortality 24 h after treatment; FIG. 4", "protocol": "LD50 values of tested chemicals (determined against wild type Drosophila) were topically applied against wild type and tyramine receptor mutant (TyrRneo30) strains. Mortality was determined 24 h after treatment. Data are the average of three replicates, 5 flies per replicate. This experiment was repeated five times."}, "tyramine receptor (TyrR)": {"biological_target": "T1, tyramine receptor (TyrR) (Drosophila melanogaster, UniProt P22270)", "T1 construct": "The open reading frame of the Drosophila tyramine receptor (TyrR) may be amplified via PCR; expressed in transfected cells; host or cells: Drosophila Schneider cells", "T1 sequence (P22270 27-601)": "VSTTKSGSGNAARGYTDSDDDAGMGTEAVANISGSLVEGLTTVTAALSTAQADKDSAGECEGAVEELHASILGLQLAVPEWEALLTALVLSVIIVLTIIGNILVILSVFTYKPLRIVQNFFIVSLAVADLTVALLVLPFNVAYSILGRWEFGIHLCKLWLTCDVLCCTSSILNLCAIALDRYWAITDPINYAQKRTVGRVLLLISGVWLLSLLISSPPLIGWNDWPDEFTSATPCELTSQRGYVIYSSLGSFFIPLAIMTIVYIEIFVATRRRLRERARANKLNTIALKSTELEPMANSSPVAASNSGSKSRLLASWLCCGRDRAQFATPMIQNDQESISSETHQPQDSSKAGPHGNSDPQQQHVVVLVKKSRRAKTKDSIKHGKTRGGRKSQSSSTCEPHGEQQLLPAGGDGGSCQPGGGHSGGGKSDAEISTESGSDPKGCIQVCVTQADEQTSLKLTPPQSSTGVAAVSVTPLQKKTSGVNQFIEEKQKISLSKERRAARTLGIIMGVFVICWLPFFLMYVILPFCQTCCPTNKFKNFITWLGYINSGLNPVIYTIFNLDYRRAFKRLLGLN", "experiment": "Tyramine receptor binding with 3H-tyramine in transfected Schneider cells", "text": "Tyramine receptor may be amplified, for example, from a Drosophila melanogaster head cDNA phage library. Phage DNA may be purified from this library by known methods using a liquid culture lysate. The open reading frame of the Drosophila tyramine receptor (TyrR) may be amplified via PCR, and the PCR product may be digested, and the TyrR open reading frame may be inserted into an expression vector using known methods, and transfected Schneider cell clones may be prepared.\nTyramine receptor binding/uptake may be performed to determine which of the transfected clones have the highest levels of functionally active tyramine receptor protein, and the selected clone may be propagated and stored in liquid nitrogen. Aliquots of the selected clone are grown for whole cell binding and for plasma membrane preparation for kinetic and screening studies.\nFor binding studies, cells transfected with the tyramine receptor (about 1×10^6 cells/ml) are cultured in each well of a multi-well plate, and binding is assessed using ^3H-tyramine and unlabeled tyramine. […] Saturation binding experiments may be performed to determine Bmax and Kd values for TyrR."}},
  "data": [
    {"compound": "penicillin", "values": [
      {"measurement": "course of the MIC value over time (resistance development)", "setting": "[1]", "result": "increases over time"}
    ]},
    {"compound": "Cc1ccc(C(C)C)cc1O", "note": "[carvacrol]", "values": [
      {"measurement": "effect (mortality) on Drosophila expressing a mutant form of the tyramine receptor", "setting": "[2]", "result": "did not affect"}
    ]},
    {"compound": "NCCc1ccc(O)cc1", "note": "[tyramine]", "values": [
      {"measurement": "response of untransfected cells to tyramine", "setting": "tyramine receptor (TyrR); untransfected cells, concentration as high as about 100 μM", "result": "do not respond"}
    ]},
    {"compound": "NCCc1ccc(O)cc1", "note": "[Blend 3H-tyramine, ^3H-tyramine]", "values": [
      {"measurement": "3H-tyramine concentration at which maximum specific binding occurs", "setting": "tyramine receptor (TyrR); cells transfected with the tyramine receptor", "result": "about 5 nM"}
    ]}
  ]
}
